Data reported in ChEMBL document CHEMBL5034039, “Discovery of Novel, Orally Bioavailable Pyrimidine Ether-Based Inhibitors of ELOVL1” (J Med Chem, 2021).

Key:
[1] = Intrinsic clearance in rat hepatocytes assessed per million cells; format: ADME, cell-based, Hepatocyte; settings: read-out: CLH
[2] = Lipophilicity, logD of the compound at pH 7.4; format: physicochemical; settings: buffer
[3] = target: T1, Very long chain fatty acid elongase 1 (Homo sapiens, UniProt Q9BW60); experiment: Inhibition of ELOVL1 in HEK293 cells assessed as reduction of C26:0 lipo phosphatidyl choline synthesis; format: cell-based
T1 sequence (Q9BW60 whole entry): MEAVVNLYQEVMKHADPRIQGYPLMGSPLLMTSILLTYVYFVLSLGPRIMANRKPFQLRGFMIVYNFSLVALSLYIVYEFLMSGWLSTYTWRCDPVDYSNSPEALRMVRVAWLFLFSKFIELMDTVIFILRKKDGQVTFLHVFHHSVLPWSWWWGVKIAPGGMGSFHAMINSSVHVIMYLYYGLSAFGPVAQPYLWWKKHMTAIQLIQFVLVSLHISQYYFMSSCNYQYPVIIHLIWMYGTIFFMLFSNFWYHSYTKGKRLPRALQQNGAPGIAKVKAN

[4] = target: T1, Very long chain fatty acid elongase 1; experiment: Inhibition of ELOVL1 (unknown origin)

Row | hepatocyte CLint [1] [µL/min/1e6 cells] | logD [2] | IC50 [3] [nM] | IC50 [4] [nM] | Structure (SMILES)
1 | 13 | 1.6 | 120 |  | Cc1ccnn1CCCOc1cc(N2CCOC3(COC3)C2)ncn1
2 | 137 | 3.3 | 12 |  | Fc1ccc(CCOc2cc(N3CCOCC3)ncn2)cc1
3 |  |  | 440 | 860 | Fc1ccc(CCOc2cc(N3CCCCC3)ccn2)cc1
4 | 12 | 3.5 | 2 |  | Clc1ccn([C@H]2C[C@H](c3cc(O[C@H]4C[C@@H](n5cccn5)C4)ncn3)C2)n1
5 | 11 | 5.7 | 15 |  | c1ccc([C@H]2CN(c3cc(O[C@H]4C[C@@H](c5ccccc5)C4)ncn3)CCO2)cc1
6 | 184 | 3.2 | 7 |  | Cc1ccnn1CCCOc1cc(N2CCCCC2)ncn1
7 |  |  |  | > 20000 | Fc1ccc(CCOc2cc(-c3cccnc3)ccn2)cc1
8 | 539 | 3.6 | 60 |  | CN(C)c1cc(OCCc2ccc(F)cc2)ncn1
9 | 23 | 2.1 | 140 |  | Cc1ccnn1CCCOc1cc(N2CCOC(c3ccnn3C)C2)ncn1 (centres undefined)
10 | 366 | 2.8 | 140 |  | Cc1ccnn1CCOc1cc(N2CCCCC2)ncn1
11 | 5.6 | 2.6 | 10 |  | c1cnn([C@H]2C[C@@H](Oc3cc([C@H]4C[C@H](n5cccn5)C4)ncn3)C2)c1
12 | 144 | 3.4 | 3 |  | Fc1ccc(CCOc2cc(N3CCCOCC3)ncn2)cc1
13 | 139 |  | 80 | 220 | Fc1ccc(CCOc2cc(N3CCCCC3)ncn2)cc1
14 | 12 | 2.6 | 210 |  | c1cnn([C@H]2C[C@@H](Oc3cc([C@H]4C[C@@H](n5cccn5)C4)ncn3)C2)c1
